Reference: patent publication US20100160391A1, “Substituted Aminopyridines as Fluorescent Reporters for Amide Hydrolases” (priority 2006, published 2010)

Experiments:
[1] = system: amidases, microsomes from High Five cells; experiment: Specific activity, microsomes from High Five cells; settings: pH 8.0, 37° C.; NM = not measurable at the same protein concentration as other substrates
Procedure: Preparation of recombinant human FAAH. Transgenic expression of the human FAAH in a baculovirus system was performed by following the method described in Nishi et al., Arch. […] The cDNA encoding human FAAH (GenBank Accession No. NM—001441) was amplified by PCR using a human liver cDNA library (Invitrogen; Carlsbad, Calif.) as a template. The primer pair was 5′-[sequence]-3′ and 5′-[sequence]-3′. BglII and EcoRI endonuclease sites (underlined) were incorporated just upstream of the start codon and downstream of the stop codon of the coding sequence of FAAH, respectively. The PCR products were cloned into a pCR2.1 vector (Invitrogen) and the nucleotide sequence was verified by DNA sequencing. The cDNA fragments were then excised and directionally ligated to the BglII and EcoRI sites of the baculovirus transfer vector pAcUW21 (Lopez-Ferber et al., Baculovirus transfer vectors, in “Baculovirus Expression Protocols,” Richardson (Ed.), pp 25-63, Humana Press, Totowa, N.J., 1995). Recombinant baculoviruses harboring the human FAAH gene, Ac-hFAAH, were generated by co-transfection of Spodoptera frugiperda-derived Sf21 cells with the recombinant transfer vector plasmid and Bsu36I-cleaved BacPAK6 viral DNA (Clontech Laboratories; Mountain View, Calif.) as described in O'Reilly et al., Baculovirus Expression Vectors: A Laboratory Manual, Oxford University Press, New York, 1992. Trichoplusia ni-derived High Five cells (1×10^6 cells/ml) were inoculated with a high titer of Ac-hFAAH. At 72 hours post-infection, the infected cells were harvested by centrifugation at 2,000×g for 20 min at 4° C. and suspended in 50 mM Tris-HCl (pH 8.0) containing 150 mM NaCl, 1 mM EDTA, 1 μM pepstatin, 100 μM leupeptin, and 0.1 mg/ml aprotinin. The cell suspension was then homogenized using a Polytron homogenizer and centrifuged at 10,000×g for 20 min at 4° C. […]
Comparison of the lowest detection limits of protein concentration of FAAH toward colorimetric and fluorescent substrates. […] The lowest detection limits of microsomal fatty acid amide hydrolase (FAAH) by substrates were determined by the fact that the signal at 10 min after kinetic measurements are equal to or over three times the noise or basal line at 0 min. Colorimetric substrate (16) assays were performed in clear 96-well microtititer plates using an absorbance wavelength at 382 nm. The fluorescent substrates containing 5-amino-2-methoxypyridine (e.g., 10, 13) were measured at an excitation wavelength (302 nm), emission wavelength (396 nm), and auto cutoff wavelength (325 nm). Similarly, the fluorescent substrates containing 5-amino-2-methoxy-6-methylpyridine (e.g., 11, 14, and 17) were measured at an excitation wavelength (304 nm), emission wavelength (392 nm), and an auto cutoff wavelength of 325 nm. […]

[2] = Dependence of relative fluorescent intensity on pH values; format: physicochemical; settings: 25 μM, pH 8, excitation 302 nm
Procedure: The dependence of relative fluorescent intensity on pH values. 5-amino-2-methoxypyridine (6) was used to determine whether protonization/de-protonization affects the relative fluorescent intensities of the reporters. A stock solution of (6) in ethanol (5 μl, 5 mM) was added to 995 μl 0.1 M sodium phosphate buffer (from pH 6.0 to pH 8.0) or 0.1 M Tris/HCl buffer (pH 9.0) in a quartz cuvette (final substrate concentration 25 μM). Relative fluorescent unit/intensity (RFU) for emission spectra was recorded by a 2 nm interval at room temperature using a fixed excitation wavelength (λ=302 nm). The RFU of each pH value was an average of triplicates and the standard deviation for each point was less than 1%. Similarly, the RFU of the excitation spectrum was recorded by a 2 nm interval at room temperature using a fixed emission wavelength (λ=396 nm) in 0.1 M phosphate buffer (pH 8.0).

[3] = system: amidases, human liver microsomes; experiment: Specific activity, human liver microsomes; format: biochemical; settings: pH 8.0, 37° C.; NM = not measurable at the same protein concentration as other substrates
Procedure: Comparison of the lowest detection limits of protein concentration of FAAH toward colorimetric and fluorescent substrates. In general, all assays were performed in 96-well styrene flat-bottom microtiter plates with a Spectra Max M2 spectrophotometer at 37° C. for […]. The total volume of each well was 201 μl consisting of 0.1 M sodium phosphate buffer (pH 8.0) (190 μl) containing 1% glycerol and 0.1% Triton-X 100, stock or diluted protein solution (10 μl), and the substrate solution (1 μl) in ethanol (final concentration 200 μM for 10, 11, 13 or 14) or in DMSO (final concentration 25 μM for 12, 15, or 16; 50 μM for 17). The lowest detection limits of microsomal fatty acid amide hydrolase (FAAH) by substrates were determined by the fact that the signal at 10 min after kinetic measurements are equal to or over three times the noise or basal line at 0 min. Colorimetric substrate (16) assays were performed in clear 96-well microtititer plates using an absorbance wavelength at 382 nm. The fluorescent substrates containing 5-amino-2-methoxypyridine (e.g., 10, 13) were measured at an excitation wavelength (302 nm), emission wavelength (396 nm), and auto cutoff wavelength (325 nm). Similarly, the fluorescent substrates containing 5-amino-2-methoxy-6-methylpyridine (e.g., 11, 14, and 17) were measured at an excitation wavelength (304 nm), emission wavelength (392 nm), and an auto cutoff wavelength of 325 nm. In addition, an excitation wavelength (366 nm), emission wavelength (496 nm), and auto cutoff wavelength (495 nm) were used for the substrates (e.g., 12 and 15) containing 7-amino-4-trifluoromethyl coumarin.
Specific activity determination. The assays for specific activities were performed as described above for the sensitivity assay. The specific activity presented is based on the following: 1) the signal after a 10 min enzymatic reaction was at least 3 fold the baseline signal at 0 min, and 2) the amount of hydrolyzed substrate during a 10 min period was less than 10% of the total amount of the substrate added. To correct for protein-induced fluorescence quenching, a standard curve of 5-amino-2-methoxypyridine (6) or 5-amino-2-methoxy-6-methylpyridine (8) was constructed in the presence of the same protein concentration used for the assay of that enzyme.

Structure (SMILES): CCCCCCCC(=O)Nc1ccc(OC)nc1 [Compound 13, N-(6-methoxypyridin-3-yl) octanamide]
- Specific activity, Microsomes from High Five cells [1]: 793 ± 38.9 pmol/min/mg protein
- melting point: 61.2 to 61.7 °C
- relative fluorescent intensity of substrate emission at the maximal excitation wavelength of (6) [2]: less than 200 RFU
- Specific activity, Human liver microsomes [3]: 0.46 ± 0.06 nmol/min/mg protein
